From patent US5480880A, “Penem derivatives” (Farmitalia Carlo Erba S.r.l., priority 1991, dated 1996)

How the values were obtained:
Acute toxicity in mice = conditions: in vivo; mouse, I.D. (so in the source)
[1] = system: Staphylococcus aureus Smith ATCC 13709; assay: In vivo activity on mouse systemic infection, S. aureus (ED50); conditions: ATCC13709, sc, 120 h, mouse systemic infection (female CD1), subcutaneous, treatment 120 min after infection, survival on day 5, read-out: ED50 (cumulative subcutaneous dose)
Method: (§1) Invivo activity of Compound of formula (I), R =
(§2) CH2 SO2 NHCN (Example 1), in comparison with FCE 22101*,
(§3) on mouse^a systemic infections.
(§4) ^a) Female mice CD1 (Charles River, Italy), weighing 22 ± 2 g were
(§5) used, experimentally infected by an introperitoneal route. Eight animals
(§6) were used at each of the concentrations of compound tested, which were
(§7) administered subcutaneously (0.1 ml/10 g weight). The mortality was
(§8) recorded daily and the number of animals surviving on day 5 was used to
(§9) calculate the cumulative effective dose (ED50).
(§10) ^b) Cumulative subcutaneous dose.
(§11) ^c) Infecting organisms were: S. aureus, Staphylococcus aureus Smith
(§12) ATCC 13709; E. Coli, Escherichia coli G (clinical isolate); S. faecalis,
(§13) ^d) Minutes after infection.

[2] = system: Streptococcus faecalis 3817 (clinical isolate); assay: In vivo activity on mouse systemic infection, S. faecalis (ED50); conditions: Enterococcus faecalis, sc, 120 h, mouse systemic infection (female CD1), subcutaneous, treatment 60-180 min after infection, survival on day 5, read-out: ED50 (cumulative subcutaneous dose)
Method: as §1, §2, §3, §4, §5, §6, §7, §8, §9, §10, §11, §12
Streptococcus faecalis 3817 (clinical isolate).
as §13

[3] = system: Escherichia coli G (clinical isolate); assay: In vivo activity on mouse systemic infection, E. coli (ED50); conditions: sc, 120 h, mouse systemic infection (female CD1), subcutaneous, treatment 30-90-360 min after infection, survival on day 5, read-out: ED50 (cumulative subcutaneous dose)
Method: as §1, §2, §3, §4, §5, §6, §7, §8, §9, §10, §11, §12, §13

Row | Compound | LD50 (Acute toxicity in mice) | ED50 [1] | ED50 [2] | ED50 [3]
1 | CC(O)C1C(=O)N2C(C(=O)O)=C(c3ccc(C[n+]4ccc(CS(=O)(=O)[N-]C#N)cc4)cc3)SC12 [Example 1, (5R,6S)-6-/1 (R)-Hydroxyethyl/-2-/4-/4-(N-cyanosulfamoylato) methyl-1-pyridinio/methylphenyl/penem-3-carboxylic acid] | > 3000 mg/kg | 0.16 mg/kg | 8.5 mg/kg | 0.65 mg/kg
2 | CC(O)C1C(=O)N2C(C(=O)O)=C(COC(N)=O)SC12 (stereo not shown) [FCE 22101, reference compound] | – | 0.7 mg/kg | 80 mg/kg | 10 mg/kg
